Data as given in US20190358288A1, “COMPOSITIONS AND METHODS FOR TREATING OR PREVENTING ENVIRONMENTAL ENTEROPATHY” (INNOVATE BIOPHARMACEUTICALS, INC., priority 2017, published 2019).
Where no end group is shown, it is not given here.

Test system: T84 monolayers
Description: T84 cells are a human colonic epithelial cell line that differentiates and creates tight junctions. T84 cells are a model for colonic inflammation.

GGVLVQPG (SEQ ID NO:1) [Larazotide]
concentration dependence of the effect of protecting T84 monolayers from disruption by Streptococcus KS47 (FIG. 3): concentration dependent
protection of T84 monolayers from disruption by Shigella (T84 human colonic epithelial cell line, FIG. 1): does not protect
